Measured values taken from patent EP0359821A1, “METHOD OF STERILIZING PLANT ANTHERS” (priority 1988, dated 1989).

Tests used:
[1] = tested on: Sommerweizen Sorte Moskovskaya 35; experiment: Field trial of gametocidal activity, spring wheat; type: in vivo, Weizen; details: 1% aqueous emulsion; for Anzahl von Körnern der Ähre bei freier Bestäubung / Anzahl von Körnern der Ähre im Isolator / percent sterility at 10000 g/ha: 10 kg/ha, V. period; for percent sterility at 10000 g/ha: read-out: Prozentsatz der Sterilität; for response vs control in vivo: control = 100, read-out: Prozentsatz des Ansetzens bei freier Bestäubung
[2] = tested on: Winterweizens Sorte Mironovskaya 808; experiment: Field trial of gametocidal activity (anther sterilisation), winter wheat; type: in vivo, Weizen; details: 2% aqueous emulsion, 20 kg/ha; for response vs control in vivo at 20000 g/ha: control = 100, read-out: Prozentsatz des Ansetzens bei freier Bestäubung
Tritikale Sorte PRAG I09 = experiment: Field trial of gametocidal activity, triticale; type: in vivo; details: 1% aqueous emulsion, 12 kg/ha; for Prozentsatz des Ansetzens bei freier Bestäubung: control = 100
Description: (§1) Bei Weizen und Tritikale werden Einzelisolatoren verwendet.
Pflanzen von Tritikale Sorte PRAG I09 werden in der V. und VI.
Der Verbrauch an Sterilisationsmittel beträgt 12 kg/ha.

Sonnenblume Linie VK 119 = experiment: Field trial of pollen sterilisation, sunflower line VK 119; details: 0,2% aqueous emulsion, 1,2 kg/ha
[3] = tested on: Sonnenblume Sorte Peredovik; experiment: Field trial of pollen sterilisation, sunflower Peredovik; type: in vivo; details: 0,2% aqueous emulsion, 1,2 kg/ke (so in the source)
Description: Pflanzen der Sonnenblume Sorte Peredovik werden in der V. oder VI.
Der Verbrauch an Sterilisationsmittel beträgt 1,2 kg/ke.

[4] = tested on: Tetraploider Roggen Sorte Ukrainskaya tetra; experiment: Field trial of gametocidal activity, tetraploid rye Ukrainskaya tetra; type: in vivo; details: 1% aqueous emulsion, 10 kg/ha, V. or VI. period
[5] = tested on: Diploider Roggen Sorte Chulpan; experiment: Field trial of gametocidal activity, diploid rye Chulpan; type: in vivo; details: single compounds, 1% aqueous emulsion, 10 kg/ha; for Anzahl von Körnern der Ähre bei freier Bestäubung / Anzahl von Körnern der Ähre im Isolator / percent sterility at 10000 g/ha: Chulpan, V. or VI. period; for percent sterility at 10000 g/ha: read-out: Prozentsatz der Sterilität; for response vs control in vivo at 10000 g/ha: read-out: Prozentsatz des Ansetzens bei freier Bestäubung, Chulpan, control = 100
Description: as §1
Pflanzen von diploidem Roggen Sorte Chulpan werden in der V. oder VI.
Der Verbrauch an Sterilisationsmitteln beträgt 10 kg/ha.

[6] = tested on: Hirse Sorte Mironovskoe 94; experiment: Field trial of gametocidal activity, millet Mironovskoe 94; type: in vivo; details: 1% aqueous emulsion, 10 kg/ha; for Anzahl von Körnern der Rispe bei freier Bestäubung / Anzahl von Körnern der Rispe im Isolator / percent pollen sterility at 10000 g/ha: V. or VI. period; for percent pollen sterility at 10000 g/ha: read-out: Prozentsatz der Sterilität; for response vs control in vivo at 10000 g/ha: control = 100, read-out: Prozentsatz des Ansetzens bei freier Bestäubung
[7] = tested on: Diploider Roggen Sorte Gibrid 1864/74; experiment: Field trial of gametocidal activity, diploid rye Gibrid 1864/74; details: 1% aqueous emulsion, 10 kg/ha; for Anzahl von Körnern der Ähre bei freier Bestäubung / Anzahl von Körnern der Ähre im Isolator / Prozentsatz der Sterilität: V. period; for Prozentsatz des Ansetzens bei freier Bestäubung: control = 100
in vivo = details: mouse, LD50, weisse Mäuse
[8] = tested on: Hirse Sorte K-9693 Kormovoe 1; experiment: Field trial of gametocidal activity, millet K-9693 Kormovoe 1; details: 1% aqueous emulsion, 10 kg/ha
[9] = tested on: Tetraploider Roggen Sorte Belta; experiment: Field trial of gametocidal activity, tetraploid rye Belta; type: in vivo; details: 1% aqueous emulsion, 10 kg/ha
[10] = tested on: Tetraploider Roggen Sorte Gibrid 67; experiment: Field trial of gametocidal activity, tetraploid rye Gibrid 67; type: in vivo; details: 1% aqueous emulsion, 10 kg/ha, V. or VI. period
Description: as §1
Pflanzen von tetraploidem Roggen Sorte Gibrid 67 werden in der V. oder VI.

[11] = tested on: Diploider Roggen Sorte Gibrid 340/65; experiment: Field trial of gametocidal activity, diploid rye Gibrid 340/65; details: Gibrid 340/65 (text: 312/65), 1% aqueous emulsion, 10 kg/ha
[12] = V. or VI. period of organogenesis

Compound | Anzahl von Körnern der Ähre bei freier Bestäubung [1] | Anzahl von Körnern der Ähre im Isolator [1] | percent sterility at 10000 g/ha [1] [%] | response vs control in vivo [1] [%] | Anzahl von Körnern der Ähre bei freier Bestäubung [2, 12] | Anzahl von Körnern der Ähre im Isolator [2, 12] | response vs control in vivo at 20000 g/ha [2] [%] | Anzahl von Körnern der Ähre im Isolator (Tritikale Sorte PRAG I09; V. and VI. period) | Prozentsatz des Ansetzens bei freier Bestäubung (Tritikale Sorte PRAG I09) | Anzahl von Körnern der Ähre bei freier Bestäubung [5] | Anzahl von Körnern der Ähre im Isolator [5] | percent sterility at 10000 g/ha [5] [%] | response vs control in vivo at 10000 g/ha [5] [%] | Anzahl von Körnern der Rispe bei freier Bestäubung [6] | Anzahl von Körnern der Rispe im Isolator [6] | percent pollen sterility at 10000 g/ha [6] [%] | response vs control in vivo at 10000 g/ha [6] [%] | Anzahl von Körnern der Ähre bei freier Bestäubung [7] | Anzahl von Körnern der Ähre im Isolator [7] | Prozentsatz der Sterilität [7] [%] | other results
OCC(O)COc1ccc(Cl)cc1 (centres unmarked) [Beispiel 3, 3-(4'-Chlorphenoxy)-propandiol-1,2] | 25,8 | 0,0 | 100 | 93.8 | 28,6 | 0,6 | 70.6 | 0,0 | 89,0% | 47,2 | 0,0 | 100 | 83.2 | 284,7 | 0,0 | 100 | 75 |  |  |  | percent sterility at 20000 g/ha ([2]; V. or VI. period of organogenesis, read-out: Prozentsatz der Sterilität): 98.4%; Ansetzen von Achänen bei freier Bestäubung in % (Sonnenblume Linie VK 119): 84,4%; Ansetzen von Achänen im Isolator bei der Bestäubung mit dem Pollengemisch in % (Sonnenblume Linie VK 119): 0,0%; Pollensterilität in % (Sonnenblume Linie VK 119): 100%; Pollensterilität in % [3]: 100%; Ansetzen von Achänen bei freier Bestäubung in % ([3]; V. or VI. period): 81,7%; Ansetzen von Achänen im Isolator bei der Bestäubung mit dem Pollengemisch in % ([3]; V. or VI. period): 0,0%; Anzahl von Körnern der Ähre bei freier Bestäubung [4]: 40,7; Anzahl von Körnern der Ähre im Isolator [4]: 0,0
OCC(O)COc1ccc(F)cc1 (centres unmarked) [Beispiel 4] | 25,9 | 0,4 | 98.6 | 94.2 | 30,6 | 0,0 | 75.4 |  |  |  |  |  |  |  |  |  |  | 42,8 | 0,0 | 100 | Prozentsatz des Ansetzens bei freier Bestäubung [7]: 88,2%; LD50 (in vivo): 400 to 600 mg/kg
OCCOc1ccc(F)cc1 [Beispiel 2] |  |  |  |  | 27,4 | 0,0 | 67.7 | 0,0 | 90,3% | 48,2 | 0,0 | 100 | 85 | 311,4 | 0,0 | 100 | 82 | 42,0 | 0,0 | 100 | Anzahl von Körnern der Rispe bei freier Bestäubung ([8]; V. or VI. period): 128,7; Anzahl von Körnern der Rispe im Isolator ([8]; V. or VI. period): 0,0; Prozentsatz der Sterilität ([8]; V. or VI. period): 100%; Prozentsatz des Ansetzens bei freier Bestäubung ([8]; control = 100): 87,7%; Prozentsatz des Ansetzens bei freier Bestäubung [7]: 87,9%; Anzahl von Körnern der Ähre bei freier Bestäubung (Tritikale Sorte PRAG I09; V. and VI. period): 62,3; LD50 (in vivo): 350 mg/kg; Anzahl von Körnern der Ähre im Isolator ([9]; V. or VI. period): 0,0; response vs control in vivo at 10000 g/ha ([9]; control = 100, read-out: Prozentsatz des Ansetzens bei freier Bestäubung): 92.8%
O=C(O)c1ccccc1O [Beispiel 62, Äthanolaminsalz der Salizylsäure] |  |  |  |  |  |  |  |  |  |  |  |  |  |  |  |  |  |  |  |  | Anzahl von Körnern der Ähre bei freier Bestäubung [10]: 40,8; Anzahl von Körnern der Ähre im Isolator [10]: 0,0
CCC(CO)(CO)CO [Beispiel 39, Etriol] |  |  |  |  |  |  |  | 0,7 | 98,8% |  |  |  |  | 355,1 | 0,0 | 100 | 93.6 |  |  |  | Anzahl von Körnern der Ähre bei freier Bestäubung ([11]; V. and VI. periods): 53,2; Anzahl von Körnern der Ähre im Isolator ([11]; V. and VI. periods): 1,6; Prozentsatz der Sterilität ([11]; V. and VI. periods): 96,7%; Prozentsatz des Ansetzens bei freier Bestäubung ([11]; control = 100): 98,5%; Anzahl von Körnern der Ähre bei freier Bestäubung (Tritikale Sorte PRAG I09; V. and VI. period): 68,2; Prozentsatz der Sterilität (Tritikale Sorte PRAG I09; V. and VI. period): 99,0%
